Laboratory results reported in ChEMBL document CHEMBL1909046, “DrugMatrix in vitro pharmacology data”.

Tests used:
[1] = target: T1, Alpha-2A adrenergic receptor (Homo sapiens, UniProt P08913); format: cell membranes, Sf9, Membrane; settings: for Ki: read-out: Ki; on all read-outs here: in other assays of this panel Not Active means under 50% inhibition at 10 µM
T1 sequence (P08913 whole entry): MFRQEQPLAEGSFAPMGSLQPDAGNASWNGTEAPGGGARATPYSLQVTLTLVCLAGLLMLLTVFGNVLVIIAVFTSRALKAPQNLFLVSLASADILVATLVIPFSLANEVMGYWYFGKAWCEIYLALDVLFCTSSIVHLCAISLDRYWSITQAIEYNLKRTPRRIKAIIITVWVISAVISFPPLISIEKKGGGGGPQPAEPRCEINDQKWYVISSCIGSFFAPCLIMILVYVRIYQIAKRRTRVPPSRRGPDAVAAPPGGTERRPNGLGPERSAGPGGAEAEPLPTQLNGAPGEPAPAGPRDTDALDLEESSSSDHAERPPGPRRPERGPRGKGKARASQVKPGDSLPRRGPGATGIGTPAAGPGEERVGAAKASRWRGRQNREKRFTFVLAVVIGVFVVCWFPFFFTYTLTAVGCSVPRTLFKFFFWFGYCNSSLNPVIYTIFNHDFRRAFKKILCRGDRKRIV

Substance-K receptor = target: T2, Substance-K receptor (Homo sapiens, UniProt P21452); format: cell membranes, CHO, Membrane; further: in other assays of this panel Not Active means under 50% inhibition at 10 µM
T2 sequence (P21452 whole entry): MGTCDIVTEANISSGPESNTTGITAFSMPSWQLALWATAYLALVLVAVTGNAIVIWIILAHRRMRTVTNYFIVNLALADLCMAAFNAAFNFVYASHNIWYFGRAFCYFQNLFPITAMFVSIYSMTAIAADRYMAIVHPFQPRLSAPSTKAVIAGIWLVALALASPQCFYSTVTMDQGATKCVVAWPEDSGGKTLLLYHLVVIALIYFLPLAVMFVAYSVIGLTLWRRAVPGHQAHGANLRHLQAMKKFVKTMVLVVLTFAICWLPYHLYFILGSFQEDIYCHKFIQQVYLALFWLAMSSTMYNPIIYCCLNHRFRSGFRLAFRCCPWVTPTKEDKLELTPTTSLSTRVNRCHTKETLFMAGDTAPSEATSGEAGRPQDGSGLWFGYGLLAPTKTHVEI

[2] = DRUGMATRIX: Glutamate, NMDA, Agonism radioligand binding (ligand: [3H] CGP-39653); format: cell membranes, Rattus norvegicus, Wistar, Cerebral cortex, Membrane; settings: Not Active = under 50% inhibition at 10 µM
[3] = target: Receptor tyrosine-protein kinase erbB-2 (Homo sapiens, UniProt P04626); assay: biochemical; format: cell-based, Insect cells;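 further: inhibition of HER2 kinase enzyme activity, measured with Poly(Glu:Tyr) as the phosphorylation substrate; in other assays of this panel Not Active means under 50% inhibition at 10 µM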
Chain of Receptor tyrosine-protein kinase erbB-2 (P04626 whole entry): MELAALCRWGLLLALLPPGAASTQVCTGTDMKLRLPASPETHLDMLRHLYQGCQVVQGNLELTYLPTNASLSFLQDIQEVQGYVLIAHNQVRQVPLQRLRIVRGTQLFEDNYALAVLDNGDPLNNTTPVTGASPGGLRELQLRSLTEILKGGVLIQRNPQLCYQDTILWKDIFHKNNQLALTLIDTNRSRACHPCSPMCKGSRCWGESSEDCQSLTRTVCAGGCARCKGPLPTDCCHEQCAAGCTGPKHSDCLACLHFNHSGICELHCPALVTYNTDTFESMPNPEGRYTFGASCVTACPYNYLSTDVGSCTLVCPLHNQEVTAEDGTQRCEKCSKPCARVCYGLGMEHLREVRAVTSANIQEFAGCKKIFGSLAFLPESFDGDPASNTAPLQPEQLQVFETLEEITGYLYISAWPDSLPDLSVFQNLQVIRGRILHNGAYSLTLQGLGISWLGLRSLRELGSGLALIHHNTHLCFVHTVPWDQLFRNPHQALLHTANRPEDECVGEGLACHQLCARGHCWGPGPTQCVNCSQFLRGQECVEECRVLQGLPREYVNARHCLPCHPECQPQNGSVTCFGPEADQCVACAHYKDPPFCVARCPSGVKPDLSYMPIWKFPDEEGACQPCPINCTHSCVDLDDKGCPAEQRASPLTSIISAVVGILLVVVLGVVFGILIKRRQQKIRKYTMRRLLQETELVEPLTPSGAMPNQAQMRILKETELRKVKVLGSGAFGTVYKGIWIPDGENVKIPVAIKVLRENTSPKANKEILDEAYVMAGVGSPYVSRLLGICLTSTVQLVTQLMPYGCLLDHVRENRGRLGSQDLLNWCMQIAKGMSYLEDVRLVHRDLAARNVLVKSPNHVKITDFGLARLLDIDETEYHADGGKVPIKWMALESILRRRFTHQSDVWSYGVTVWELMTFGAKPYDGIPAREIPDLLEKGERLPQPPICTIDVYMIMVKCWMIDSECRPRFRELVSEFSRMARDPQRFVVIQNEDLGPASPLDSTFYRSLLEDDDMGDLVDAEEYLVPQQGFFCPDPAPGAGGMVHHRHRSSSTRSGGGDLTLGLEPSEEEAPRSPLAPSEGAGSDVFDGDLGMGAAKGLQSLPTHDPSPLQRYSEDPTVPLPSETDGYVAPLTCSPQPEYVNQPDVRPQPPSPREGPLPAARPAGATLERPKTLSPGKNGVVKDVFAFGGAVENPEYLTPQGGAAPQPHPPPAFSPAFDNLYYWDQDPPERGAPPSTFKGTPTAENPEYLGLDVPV

Estrogen receptor = target: T3, Estrogen receptor (Homo sapiens, UniProt P03372); settings: sf9; further: in other assays of this panel Not Active means under 50% inhibition at 10 µM
T3 sequence (P03372 whole entry): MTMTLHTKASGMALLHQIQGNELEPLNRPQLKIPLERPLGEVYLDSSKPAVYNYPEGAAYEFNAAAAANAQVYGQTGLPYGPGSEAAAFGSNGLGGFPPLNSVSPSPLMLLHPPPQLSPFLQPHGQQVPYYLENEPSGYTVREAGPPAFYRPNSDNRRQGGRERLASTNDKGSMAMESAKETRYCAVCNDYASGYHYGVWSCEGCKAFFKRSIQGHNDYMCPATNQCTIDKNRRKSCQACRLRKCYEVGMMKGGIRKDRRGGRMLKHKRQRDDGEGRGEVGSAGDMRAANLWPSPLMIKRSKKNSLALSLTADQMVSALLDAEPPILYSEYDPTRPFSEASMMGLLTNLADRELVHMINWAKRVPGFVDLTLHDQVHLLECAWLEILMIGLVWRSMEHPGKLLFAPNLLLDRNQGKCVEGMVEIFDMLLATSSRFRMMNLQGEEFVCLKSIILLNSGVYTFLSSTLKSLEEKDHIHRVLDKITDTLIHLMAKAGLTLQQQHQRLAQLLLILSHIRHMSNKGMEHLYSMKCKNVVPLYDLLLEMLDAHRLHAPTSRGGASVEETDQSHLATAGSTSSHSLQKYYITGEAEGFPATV

Glucocorticoid receptor = target: T4, Glucocorticoid receptor (Homo sapiens, UniProt P04150); settings: hela s3; further: in other assays of this panel Not Active means under 50% inhibition at 10 µM
T4 sequence (P04150 whole entry): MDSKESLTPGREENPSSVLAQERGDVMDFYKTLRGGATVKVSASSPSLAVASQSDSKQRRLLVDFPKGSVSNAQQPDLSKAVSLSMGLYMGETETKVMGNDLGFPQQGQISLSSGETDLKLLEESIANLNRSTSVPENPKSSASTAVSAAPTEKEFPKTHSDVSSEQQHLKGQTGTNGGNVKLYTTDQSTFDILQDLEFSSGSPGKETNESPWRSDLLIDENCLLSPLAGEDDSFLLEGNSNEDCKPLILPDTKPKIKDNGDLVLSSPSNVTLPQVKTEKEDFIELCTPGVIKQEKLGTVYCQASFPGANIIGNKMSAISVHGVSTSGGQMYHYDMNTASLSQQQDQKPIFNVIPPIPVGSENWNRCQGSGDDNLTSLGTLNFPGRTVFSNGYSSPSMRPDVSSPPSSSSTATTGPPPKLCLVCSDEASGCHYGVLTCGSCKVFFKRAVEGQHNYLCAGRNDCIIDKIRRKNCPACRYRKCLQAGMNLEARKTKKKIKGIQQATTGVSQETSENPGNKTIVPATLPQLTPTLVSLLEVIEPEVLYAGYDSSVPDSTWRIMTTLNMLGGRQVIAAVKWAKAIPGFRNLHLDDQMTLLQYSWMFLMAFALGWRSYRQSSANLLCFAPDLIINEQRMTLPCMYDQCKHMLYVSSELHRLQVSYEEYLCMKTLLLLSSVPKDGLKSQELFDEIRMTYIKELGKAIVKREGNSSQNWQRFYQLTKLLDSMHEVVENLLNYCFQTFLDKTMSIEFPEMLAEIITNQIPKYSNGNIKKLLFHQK

COc1c(C)c2c(c(O)c1C/C=C(\C)CCC(=O)O)C(=O)OC2 [MYCOPHENOLIC ACID]
IC50 ([1]; sf9): Not Active
IC50 (Substance-K receptor; cho): Not Active
IC50 [2]: Not Active
Ki [2]: Not Active
IC50 ([3]; insect cells): Not Active
IC50 (Estrogen receptor): Not Active

CN1CCN(CCCN2c3ccccc3Sc3ccc(Cl)cc32)CC1 [PROCHLORPERAZINE]
IC50 (Substance-K receptor; cho): Not Active
IC50 ([3]; insect cells): Not Active
IC50 (Estrogen receptor): Not Active
IC50 (Glucocorticoid receptor): Not Active

CO[C@H]1/C=C/O[C@@]2(C)Oc3c(C)c(O)c4c(O)c(c(/C=N/N5CCN(C)CC5)c(O)c4c3C2=O)NC(=O)/C(C)=C\C=C\[C@H](C)[C@H](O)[C@@H](C)[C@@H](O)[C@@H](C)[C@H](OC(C)=O)[C@@H]1C [RIFAMPIN]
IC50 ([1]; sf9): Not Active
IC50 (Substance-K receptor; cho): Not Active
IC50 [2]: Not Active
Ki [2]: Not Active
IC50 ([3]; insect cells): Not Active

Cc1nc2n(c(=O)c1CCN1CCC(c3noc4cc(F)ccc34)CC1)CCCC2 [RISPERIDONE]
IC50 (Substance-K receptor; cho): Not Active
IC50 ([3]; insect cells): Not Active
IC50 (Estrogen receptor): Not Active
IC50 (Glucocorticoid receptor): Not Active

Cc1noc(NS(=O)(=O)c2ccc(N)cc2)c1C [SULFISOXAZOLE]
IC50 ([1]; sf9): Not Active
IC50 (Substance-K receptor; cho): Not Active
IC50 [2]: Not Active
Ki [2]: Not Active
IC50 ([3]; insect cells): Not Active
IC50 (Estrogen receptor): Not Active

CSc1ccc(/C=C2/C(C)=C(CC(=O)O)c3cc(F)ccc32)cc1 [SULINDAC SULFIDE]
IC50 ([1]; sf9): Not Active
IC50 (Substance-K receptor; cho): Not Active
IC50 [2]: Not Active
Ki [2]: Not Active
IC50 ([3]; insect cells): Not Active
IC50 (Estrogen receptor): Not Active

Nc1c2c(nc3ccccc13)CCCC2 [TACRINE]
IC50 ([1]; sf9): Not Active
IC50 (Substance-K receptor; cho): Not Active
IC50 [2]: Not Active
Ki [2]: Not Active
IC50 ([3]; insect cells): Not Active
IC50 (Estrogen receptor): Not Active

CC/C(=C(\c1ccccc1)c1ccc(OCCN(C)C)cc1)c1ccccc1 [TAMOXIFEN]
IC50 ([1]; read-out: IC50): 1.93 µM
Ki [1]: 0.726 µM
IC50 (Substance-K receptor; read-out: IC50): 3.67 µM
Ki (Substance-K receptor; read-out: Ki): 1.22 µM
IC50 ([3]; read-out: IC50): 2.95 µM
IC50 (Glucocorticoid receptor): Not Active

CC(C)N1CCN(c2ccc(OCC3COC(Cn4cncn4)(c4ccc(Cl)cc4Cl)O3)cc2)CC1 (stereo not drawn) [TERCONAZOLE]
IC50 ([1]; read-out: IC50): 0.983 µM
Ki [1]: 0.369 µM
IC50 (Substance-K receptor; cho): Not Active
IC50 [2]: Not Active
Ki [2]: Not Active
IC50 ([3]; insect cells): Not Active
IC50 (Estrogen receptor): Not Active

NC[C@H]1CC[C@H](C(=O)O)CC1 [TRANEXAMIC ACID]
IC50 ([1]; sf9): Not Active
IC50 (Substance-K receptor; cho): Not Active
IC50 [2]: Not Active
Ki [2]: Not Active
IC50 ([3]; insect cells): Not Active
IC50 (Estrogen receptor): Not Active

CC1(C)O[C@@H]2C[C@H]3[C@@H]4CCC5=CC(=O)C=C[C@]5(C)[C@@]4(F)[C@@H](O)C[C@]3(C)[C@]2(C(=O)CO)O1 [TRIAMCINOLONE ACETONIDE]
IC50 ([1]; sf9): Not Active
IC50 (Substance-K receptor; cho): Not Active
IC50 [2]: Not Active
Ki [2]: Not Active
IC50 ([3]; insect cells): Not Active

NS(=O)(=O)c1cc2c(cc1Cl)NC(C(Cl)Cl)NS2(=O)=O (stereo not drawn) [TRICHLORMETHIAZIDE]
IC50 ([1]; sf9): Not Active
IC50 (Substance-K receptor; cho): Not Active
IC50 [2]: Not Active
Ki [2]: Not Active
IC50 ([3]; insect cells): Not Active

Cc1c(C)c2c(c(C)c1O)CCC(C)(COc1ccc(CC3SC(=O)NC3=O)cc1)O2 (stereo not drawn) [TROGLITAZONE]
IC50 ([1]; sf9): Not Active
IC50 (Substance-K receptor; cho): Not Active
IC50 [2]: Not Active
Ki [2]: Not Active
IC50 ([3]; insect cells): Not Active
IC50 (Estrogen receptor): Not Active

N#CC(C#N)=Cc1ccc(O)c(O)c1 [TYRPHOSTIN 23]
IC50 ([1]; sf9): Not Active
IC50 (Substance-K receptor; cho): Not Active
IC50 [2]: Not Active
Ki [2]: Not Active
IC50 ([3]; insect cells): Not Active
IC50 (Estrogen receptor): Not Active
